For one molecule, Activity results are on record in ChEMBL document CHEMBL1137601, “Catalysis of zinc transfer by D-penicillamine to secondary chelators” (J Med Chem, 2007).

For assay [1], the target named is T1, Carboxypeptidase A1 (Bos taurus) (UniProt P00730).
T1 sequence (whole entry): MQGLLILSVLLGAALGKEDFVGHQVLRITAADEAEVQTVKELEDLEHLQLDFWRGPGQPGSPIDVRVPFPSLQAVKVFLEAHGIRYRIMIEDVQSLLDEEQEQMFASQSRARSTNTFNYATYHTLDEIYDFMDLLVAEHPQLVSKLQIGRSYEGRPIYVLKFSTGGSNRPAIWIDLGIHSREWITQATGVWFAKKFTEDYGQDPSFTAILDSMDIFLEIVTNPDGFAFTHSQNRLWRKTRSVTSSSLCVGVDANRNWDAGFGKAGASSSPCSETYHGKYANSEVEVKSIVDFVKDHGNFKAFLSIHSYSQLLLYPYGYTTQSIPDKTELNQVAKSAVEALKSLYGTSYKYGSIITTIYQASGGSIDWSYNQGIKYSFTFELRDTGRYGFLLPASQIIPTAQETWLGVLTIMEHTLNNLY
Briefly: Inhibition of bovine ZnCPD pretreated for 200 seconds at 1.5 mM assessed as transfer of zinc(II) from ZnCPD to chelator 4-(2-pyridylazo)-resorcinol. Also on record: scale not given: the % may be the effect or the level left.

In assay [2] the target is T1, Carboxypeptidase A1 (Bos taurus). Briefly: Inhibition of bovine ZnCPD pretreated at 0.25 mM assessed as residual enzyme activity in presence of 1 mM ethylenediaminetetraacetic acid within 20 mins.
Assay [3] shares this target. The assay is described as follows: Inhibition of bovine ZnCPD pretreated at 5 mM assessed as residual enzyme activity in presence of 1 mM ethylenediaminetetraacetic acid within 7 mins.
For assay [4] the target is unchanged. The assay is described as follows: Inhibition of bovine ZnCPD pretreated at 0.25 mM assessed as residual enzyme activity in presence of 2.5 uM thionenin after 17 mins.

Take `CC(C)(S)[C@@H](N)C(=O)O`: the Activity amounted to 45% in assay [1], 1% in assay [2], 0.1% in assay [3] and 1.5% in assay [4].
